Laboratory results: patent US10407422B2, “Triazolopyridine inhibitors of myeloperoxidase” (priority 2015, dated 2019)

Experiments:
myeloperoxidase (MPO) [1] = molecular target: T1, myeloperoxidase (MPO) (Homo sapiens (Human), UniProt P05164); assay: MPO peroxidation assay (Amplex Red assay); type: biochemical; conditions: potency range class
Protocol: MPO Peroxidation Assay (Amplex Red Assay) MPO peroxidation activity was measured in 100 mM KPi (pH 7.4) by utilizing the non-fluorescent reagent Amplex Red (Invitrogen Cat. #A12222) which can be oxidized to the highly fluorescent resorufin. Amplex Red is oxidized by the peroxidase action of MPO to resorufin. Reactions were carried out in 50 μL total volume by adding a 25 μL mixture of 200 pM myeloperoxidase and 40 nM H2O2(Sigma #349887) to 100 nL inhibitor in 100% DMSO in a 384 well Perkin Elmer Optiplate. Enzyme and compound were preincubated for ten minutes at room temperature. After the ten minute preincubation, 25 μL of an Amplex Red mixture containing 200 μM Amplex Red and 10 mM H2O2 was added to the plate. Kinetic determinations were carried out immediately on a Perkin Elmer Envision (15 minute kinetic read, Ex: 535 nm, Em: 590 nm). IC50 values were calculated by determining the slope of the linear portion of the kinetic trace (180-540 secs), and using that calculated slope to determine % inhibition occurring at each concentration of inhibitor using the following equation: [formula] where A=minimal Y value (activity level of inhibited sample), B=maximal Y value (activity level of uninhibited sample), C=Log IC50, D=Hill Slope, x=concentration of inhibitor. MPO Chlorination Assay (APF Assay)

myeloperoxidase (MPO) [2] = molecular target: T1, myeloperoxidase (MPO); assay: MPO chlorination assay (APF assay); type: biochemical; conditions: potency range class
Protocol: [formula] where A=minimal Y value (activity level of inhibited sample), B=maximal Y value (activity level of uninhibited sample), C=Log IC50, D=Hill Slope, x=concentration of inhibitor. MPO Chlorination Assay (APF Assay) MPO chlorination activity was measured in 100 mM KPi (pH 7.4) by utilizing the non-fluorescent reagent Aminophenyl fluorescein (APF, Invitrogen Cat. #A36003). APF is cleaved by (—OCl) to yield the fluorescent compound fluorescein. Reactions were carried out in 50 μL total volume by adding a 25 μL mixture of 200 pM myeloperoxidase and 120 mM NaCl to 100 nL inhibitor in 100% DMSO in a 384 well, non-binding surface clear bottom plate (Corning #3655). Enzyme, inhibitor, and chloride were preincubated for ten minutes at room temperature. After the ten minute preincubation, 25 μL of an APF mixture containing […], 120 mM NaCl and 10 μM H2O2 was added to the plate using the internal dispensing system of a Hammatsu FDSS 6000. Kinetic determinations were carried out immediately on the FDSS 6000 (3 minute kinetic read, 1 read every second, ex: 485 nm, em: 535 nm). IC50 values for inhibitors were calculated by taking the slope of the linear portion of the kinetic measurement (20 seconds to ˜80-120 secs). IC50 values were calculated by determining the slope of the linear portion of the kinetic trace […], and using that calculated slope to determine % inhibition occurring at each concentration of inhibitor using the following equation: [formula] where A=minimal Y value (activity level of inhibited sample), B=maximal Y value (activity level of uninhibited sample), C=Log IC50, D=Hill Slope, x=concentration of inhibitor. EPX Bromination Assay

T1 sequence (P05164 49-745): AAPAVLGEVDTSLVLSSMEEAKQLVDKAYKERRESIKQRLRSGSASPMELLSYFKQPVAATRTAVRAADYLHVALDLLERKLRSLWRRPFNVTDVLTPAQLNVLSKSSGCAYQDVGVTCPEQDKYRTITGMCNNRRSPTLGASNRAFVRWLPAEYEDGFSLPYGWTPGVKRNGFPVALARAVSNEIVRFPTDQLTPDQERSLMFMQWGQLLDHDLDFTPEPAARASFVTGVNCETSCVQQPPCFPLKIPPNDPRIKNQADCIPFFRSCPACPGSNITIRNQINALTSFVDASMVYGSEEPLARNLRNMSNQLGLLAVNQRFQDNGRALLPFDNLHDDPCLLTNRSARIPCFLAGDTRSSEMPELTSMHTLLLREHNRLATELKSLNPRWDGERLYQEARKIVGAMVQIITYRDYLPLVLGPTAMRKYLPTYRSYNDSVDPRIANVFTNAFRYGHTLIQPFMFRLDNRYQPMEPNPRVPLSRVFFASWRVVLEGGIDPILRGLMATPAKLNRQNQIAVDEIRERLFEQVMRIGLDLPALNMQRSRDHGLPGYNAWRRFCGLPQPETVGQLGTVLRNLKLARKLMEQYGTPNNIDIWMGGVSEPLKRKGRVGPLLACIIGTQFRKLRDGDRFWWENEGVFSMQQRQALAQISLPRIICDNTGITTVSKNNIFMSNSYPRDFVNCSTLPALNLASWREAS

Nc1cc(Cc2cnn(Cc3ccc(-n4cccn4)cc3)c2)c2nn[nH]c2n1 [Example 56, 7-[(1-{[4-(1H-Pyrazol-1-yl)phenyl]methyl}-1H-pyrazol-4-yl)methyl]-3H-[1,2,3]triazolo[4,5-b]pyridin-5-amine]
IC50 (myeloperoxidase (MPO) [1]): 1 to 100 nM | IC50 (myeloperoxidase (MPO) [2]): 101 to 999 nM

Nc1cc(Cc2cnn(Cc3ccccc3Cl)c2)c2nn[nH]c2n1 [Example 57, 7-((1-(2-Chlorobenzyl)-1H-pyrazol-4-yl)methyl)-3H-[1,2,3]triazolo[4,5-b]pyridin-5-amine]
IC50 (myeloperoxidase (MPO) [1]): 1 to 100 nM | IC50 (myeloperoxidase (MPO) [2]): 1 to 100 nM

Cc1nc(-c2cccc(Cn3cc(Cc4cc(N)nc5[nH]nnc45)cn3)c2)no1 [Example 59, 7-((1-(3-(5-Methyl-1,2,4-oxadiazol-3-yl)benzyl)-1H-pyrazol-4-yl)methyl)-3H-[1,2,3]triazolo[4,5-b]pyridin-5-amine]
IC50 (myeloperoxidase (MPO) [1]): 1 to 100 nM | IC50 (myeloperoxidase (MPO) [2]): 101 to 999 nM

Nc1cc(Cc2cnn(Cc3cccc(OC(F)(F)F)c3)c2)c2nn[nH]c2n1 [Example 60, 7-((1-(3-(Trifluoromethoxy)benzyl)-1H-pyrazol-4-yl)methyl)-3H-[1,2,3]triazolo[4,5-b]pyridin-5-amine]
IC50 (myeloperoxidase (MPO) [1]): 1 to 100 nM | IC50 (myeloperoxidase (MPO) [2]): 1 to 100 nM

Nc1cc(Cc2cnn(Cc3cccc(OC(F)F)c3)c2)c2nn[nH]c2n1 [Example 61, 7-((1-(3-(Difluoromethoxy)benzyl)-1H-pyrazol-4-yl)methyl)-3H-[1,2,3]triazolo[4,5-b]pyridin-5-amine]
IC50 (myeloperoxidase (MPO) [1]): 1 to 100 nM | IC50 (myeloperoxidase (MPO) [2]): 1 to 100 nM

Nc1cc(Cc2cnn(Cc3cccc(C(F)(F)F)c3)c2)c2nn[nH]c2n1 [Example 62, 7-((1-(3-(Trifluoromethyl)benzyl)-1H-pyrazol-4-yl)methyl)-3H-[1,2,3]triazolo[4,5-b]pyridin-5-amine]
IC50 (myeloperoxidase (MPO) [1]): 1 to 100 nM | IC50 (myeloperoxidase (MPO) [2]): 101 to 999 nM

Nc1cc(Cc2cnn(Cc3ccc(CO)cc3)c2)c2nn[nH]c2n1 [Example 64, (4-((4-((5-Amino-3H-[1,2,3]triazolo[4,5-b]pyridin-7-yl)methyl)-1H-pyrazol-1-yl)methyl)phenyl)methanol]
IC50 (myeloperoxidase (MPO) [1]): 1 to 100 nM | IC50 (myeloperoxidase (MPO) [2]): 101 to 999 nM

Nc1cc(Cc2cnn(CC3CCN(C(=O)OCc4ccccc4)CC3)c2)c2nn[nH]c2n1 [Example 65, Benzyl 4-((4-((5-amino-3H-[1,2,3]triazolo[4,5-b]pyridin-7-yl)methyl)-1H-pyrazol-1-yl)methyl)piperidine-1-carboxylate]
IC50 (myeloperoxidase (MPO) [1]): 101 to 999 nM | IC50 (myeloperoxidase (MPO) [2]): 101 to 999 nM

Nc1cc(Cc2cnn(C3CCNC3)c2)c2nn[nH]c2n1 (stereo not shown) [Example 66, 7-((1-(Pyrrolidin-3-yl)-1H-pyrazol-4-yl)methyl)-3H-[1,2,3]triazolo[4,5-b]pyridin-5-amine]
IC50 (myeloperoxidase (MPO) [1]): 101 to 999 nM | IC50 (myeloperoxidase (MPO) [2]): 101 to 999 nM

Nc1cc(Cc2cnn(Cc3cccc(Cc4ccccc4)c3)c2)c2nn[nH]c2n1 [Example 67, 7-((1-(3-Benzylbenzyl)-1H-pyrazol-4-yl)methyl)-3H-[1,2,3]triazolo[4,5-b]pyridin-5-amine]
IC50 (myeloperoxidase (MPO) [1]): 1 to 100 nM | IC50 (myeloperoxidase (MPO) [2]): 1 to 100 nM

Nc1cc(Cc2cnn(Cc3ccc4cc(O)ccc4c3)c2)c2nn[nH]c2n1 [Example 68, 6-((4-((5-Amino-3H-[1,2,3]triazolo[4,5-b]pyridin-7-yl)methyl)-1H-pyrazol-1-yl)methyl)naphthalen-2-ol]
IC50 (myeloperoxidase (MPO) [1]): 1 to 100 nM | IC50 (myeloperoxidase (MPO) [2]): 101 to 999 nM

CN(C)CCOc1ccc2cc(Cn3cc(Cc4cc(N)nc5[nH]nnc45)cn3)ccc2c1 [Example 69, 7-((1-((6-(2-(Dimethylamino)ethoxy)naphthalen-2-yl)methyl)-1H-pyrazol-4-yl)methyl)-3H-[1,2,3]triazolo[4,5-b]pyridin-5-amine]
IC50 (myeloperoxidase (MPO) [1]): 101 to 999 nM | IC50 (myeloperoxidase (MPO) [2]): 1 to 100 nM

Cc1cc(Cc2cc(N)nc3[nH]nnc23)no1 [Example 71, 7-[(5-Methyl-1,2-oxazol-3-yl)methyl]-3H-[1,2,3]triazolo[4,5-b]pyridin-5-amine]
IC50 (myeloperoxidase (MPO) [1]): 101 to 999 nM | IC50 (myeloperoxidase (MPO) [2]): 101 to 999 nM

CN(C)CCNC(=O)c1ccc(Cn2cc(Cc3cc(N)nc4[nH]nnc34)cn2)cc1 [Example 72, 4-((4-((5-Amino-3H-[1,2,3]triazolo[4,5-b]pyridin-7-yl)methyl)-1H-pyrazol-1-yl)methyl)-N-(2-(dimethylamino)ethyl)benzamide]
IC50 (myeloperoxidase (MPO) [1]): 1 to 100 nM | IC50 (myeloperoxidase (MPO) [2]): 101 to 999 nM
